The source of these data is patent US20090197910A1, “NOVEL VIRAL REPLICATION INHIBITORS” (KATHOLIEKE UNIVERSITEIT LEUVEN, priority 2006, published 2009).

One data set relates to HCV Subgenomic Replicon. The data set can be described thus: HCV-Huh-5-2 replicon cell assay (luciferase). The data set is classed as cell-based, Hepatitis C virus. As to conditions: for EC50: HCV subgenomic replicon in Huh-5-2 cells, 72 hours, luciferase, read-out: EC50 (concentration required to inhibit luciferase activity in the replicon system by 50%). The procedure:
(§1) Huh-5-2 cells [a cell line with a persistent HCV replicon I3891uc-ubi-neo/NS3-3′/5.1; replicon with firefly luciferase-ubiquitin-neomycin phosphotransferase fusion protein and EMCV-IRES driven NS3-5B HCV polyprotein] was cultured in RPMI medium (Gibco) supplemented with 10% fetal calf serum, 2 mM L-glutamine (Life Technologies), 1× non-essential amino acids (Life Technologies); 100 IU/ml penicillin and 100 ug/ml streptomycin and 250 ug/ml G418 (Geneticin, Life Technologies). Cells were seeded at a densitiy of 7000 cells per well in 96 well View Plate™ (Packard) in medium containing the same components as described above, except for G418. Cells were allowed to adhere and proliferate for 24 hr. At that time, culture medium was removed and serial dilutions of the test compounds were added in culture medium lacking G418. Interferon alfa 2a (500 IU) was included as a positive control. Plates were further incubated at 37° C. and 5% CO2 for 72 hours. Replication of the HCV replicon in Huh-5 cells results in luciferase activity in the cells. Luciferase activity is measured by adding 50 μl of 1× Glo-lysis buffer (Promega) for 15 minutes followed by 50 ul of the Steady-Glo Luciferase assay reagent (Promega). Luciferase activity is measured with a luminometer and the signal in each individual well is expressed as a percentage of the untreated cultures. Parallel cultures of Huh-5-2 cells, seeded at a density of 7000 cells/well of classical 96-well cell culture plates (Becton-Dickinson) are treated in a similar fashion except that no Glo-lysis buffer or Steady-Glo Luciferase reagent is added. Instead the density of the culture is measured by means of the MTS method (Promega).
(In general: In antiviral work, replicon cells carry a viral genome segment that copies itself.)

In the next data set the test system is Huh-5-2 cells. The data set can be described thus: Cytostatic effect on Huh-5-2 cells (MTS method, parallel cultures). The class given is cell-based. As to conditions: 72 hours, read-out: CC50 (concentration required to inhibit the proliferation of exponentially growing Huh-5-2 cells by 50%). On the procedure:
as §1
(Formazan colour is commonly taken as a measure of viable cells.)

Experiment in data set [1]: as above
As to conditions: human, read-out: CC50 (concentration required to inhibit the proliferation of exponentially growing Huh-5-2 cells by 50%). The data set is classed as cell-based. The procedure: as §1

Like-named read-outs stand apart in the source and are kept apart here. Some results are limits rather than exact numbers.

As to `CC(=O)OCC1OC(n2c(SCc3cc4cc(Br)ccc4oc3=O)nc3cc(Cl)c(Cl)cc32)C(OC(C)=O)C(OC(C)=O)C1OC(C)=O` (centres unmarked) [Compound 7g, Acetic acid 3,5-diacetoxy-2-acctoxymethyl-6-[2-(6-bromo-2-oxo-2H-chromen-3-ylmethylsulfanyl)-5,6-dichloro-benzoimidazol-1-yl]-tetrahydro-pyran-4-yl ester], in the data set with HCV Subgenomic Replicon, the EC50 was 4.08 µM. Also, the CC50 with Huh-5-2 cells is greater than 64.8 µM.

Consider `CC(=O)OCC1OC(n2c(SCc3cc4cc(Br)ccc4oc3=O)nc3ccccc32)CC(OC(C)=O)C1OC(C)=O` (centres unmarked) [Compound 22c, Acetic acid 3,4-diacetoxy-6-[2-(6-bromo-2-oxo-2H-chromen-3-ylmethylsulfanyl)-benzoimidazol-1-yl]-tetrahydro-pyran-2-ylmethyl ester], for which, in the data set on HCV Subgenomic Replicon (Hepatitis C virus), the EC50 stood at 4.08 µM. Also, the “SI (selectivity index, ratio of CC50 to EC50)” value in the data set with HCV Subgenomic Replicon (Huh-5-2 cells) is on record as 3.95. The CC50 at 72 h in data set [1] was 16.1 µM.
